Experimental findings from patent publication US12391641B2, “Prostaglandin EP4 receptor antagonist compounds” (NXERA PHARMA UK LIMITED, priority 2019, dated 2025) are described below.

The structures appear in SMILES notation.

The target of the experiment is T1, Human prostaglandin E2 receptor 4 (EP4) (Homo sapiens, UniProt P35408).
T1 construct: expressed in transfected cells; host or cells: HEK293 cells transduced with EP4 BacMam virus
T1 sequence (P35408 whole entry): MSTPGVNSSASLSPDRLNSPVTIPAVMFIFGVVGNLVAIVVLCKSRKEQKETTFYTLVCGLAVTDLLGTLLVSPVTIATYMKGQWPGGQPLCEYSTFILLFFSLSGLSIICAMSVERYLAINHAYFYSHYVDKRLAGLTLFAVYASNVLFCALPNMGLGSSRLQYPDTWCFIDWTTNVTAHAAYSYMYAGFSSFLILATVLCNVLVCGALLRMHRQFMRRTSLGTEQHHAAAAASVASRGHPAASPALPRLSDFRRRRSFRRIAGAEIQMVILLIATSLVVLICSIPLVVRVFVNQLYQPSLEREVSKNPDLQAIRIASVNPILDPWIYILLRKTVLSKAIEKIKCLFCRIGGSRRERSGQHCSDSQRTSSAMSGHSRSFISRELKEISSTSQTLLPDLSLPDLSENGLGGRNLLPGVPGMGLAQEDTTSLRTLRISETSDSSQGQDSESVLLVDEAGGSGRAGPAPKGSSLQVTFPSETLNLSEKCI
Kind of experiment: cAMP Gs Functional Assay (HTRF cAMP dynamic-2), antagonism of PGE2. The experiment is classed as cell-based. The conditions noted are these: HEK293 cells transfected with EP4 BacMam virus; PGE2 challenge at EC80 (7 nM); pIC50 converted to functional pKb with a modified Cheng Prussoff equation; read-out: Human EP4 fpKb (converted). As for the experimental part:
Cloning, Baculovirus generation, large scale infection of HEK293 cells and membrane preparation: Human prostaglandin E2 receptor 4 (EP4) was cloned into pBacMam expression vector (GeneScript, UK). Transposition of EP4 DNA was performed using Invitrogen's Bac-to-Bac Baculovirus Expression Systems. P0 baculovirus was generated by transfecting SF9 Cells with bacmid DNA using Cellfectin II transfection reagent (ThermoFisher Scientific, UK, catalog number 10362-100). Following P0 generation P1 virus was then generated ready for large scale infection and membrane preparation. HEK293 cells were grown in DMEM+Glutamax, supplemented with 10% heat inactivated fetal bovine serum (FBS). Cells were infected at a seeding density of 3.5 million cells/mL in 500 cm^3 flasks at 5% v/v EP4 Bacman. Expression was carried out over 36 hr period at 37° C. with 5% CO2. The cells were removed using PBS and a cell scrapper. The cell culture was centrifuged at 2500 RPM for 10 mins at 4° C. The supernatant was then poured off and the pellet stored at −80° C. The pellet was defrosted and re-suspended in 15 mL of homogenising buffer (20 mM HEPES, 10 mM EDTA, pH 7.4). Then homogenised in mechanical homogeniser (VMR) for 10 seconds. The membrane was centrifuged in centrifuge tubes at 40,000 g for 15 mins at 4° C. The supernatant was poured away and re-suspended in 15 mL of homogenising buffer. Homogenised for 20 seconds. The membrane was centrifuged at 40,000 g for 45 mins at 4° C. The membrane was re-suspended in 3 mL of storage buffer (20 mM HEPES, 0.1 mM EDTA, pH 7.4) mixing well. The resulting membranes were then stored at −80° C.
cAMP Gs Functional Assay: cAMP production following EP4 receptor activation was determined using the Homogeneous Time-Resolved Fluorescence (HTRF) cAMP dynamic-2 assay (Cisbio, France). HEK293 cells were transfected using a 0.5% EP4 Bacman virus for 36 hours, before dissociating the cells, and freezing at […].
On the day of testing, increasing concentration of test compounds, alongside positive controls (1 uM ONO-AE3-208) and negative control (DMSO (Sigma-Aldrich, UK) were added to a ProxiPlate-384 Plus, White 384-shallow well Mircoplate, (PerkinElmer, USA) using the ECHO dispense.
Cells were defrosted in a water bath and resuspended in DMEM supplemented with 10% FBS before centrifuging at 1200 RPM for 5 mins to form a pellet. The pellet was resuspended in assay buffer (DMEM+0.5 mM IBMX (Tocris, Abingdon, UK, Catalog Number 2845)) to a 1×10^6 cells/mL. Cell suspension, for a final assay concentration of 5000 cell/well was added using the multidrop to the pre-dispensed assay plate. The plate was then incubated at 37° C. for 30 mins, with 5% CO2. After incubation, EC80 concentration (7 nM) of PGE2 (EP4 agonist) was added to the plate. In parallel, a PGE2 dose-response curve was dispense to a separate plate. Assay buffer was then dispensed on top. The cAMP production was determined as manufacturer's instructions, before plates were read on a PheraStar fluorescence plate reader (BMG LabTech, Germany).
The pIC50 was converted to a functional pKb value using a modified Cheng Prussoff equation where Kd=agonist EC50 and Lhot=agonist challenge concentration;
`CC(C)[C@@H](OCc1ccc(F)cc1)C(=O)NC1(c2ccc(-c3nnn[nH]3)cc2)CC1` [Example 70, (R)—N-(1-(4-(1H-tetrazol-5-yl)phenyl)cyclopropyl)-2-((4-fluorobenzyl)oxy)-3-methylbutanamide]: the Ki is 6.92 nM. The result for `COCc1cccc(CO[C@@H](C(=O)NC2(c3ccc(C(=O)O)cc3)CC2)C(C)C)c1` [Example 60, (R)-4-(1-(2-((3-(methoxymethyl)benzyl)oxy)-3-methylbutanamido)cyclopropyl)benzoic acid] reads 1.91 nM; that for `CC(C)C(OCc1cccc(C2COC2)c1)C(=O)N[C@@H](C)c1ccc(C(=O)O)cc1` (single isomer, unassigned) [Example 48], 141 nM. The result for `CC(C)[C@@H](OCc1ccc(C(F)(F)F)cc1)C(=O)NC1(c2ccc(-c3nnn[nH]3)cc2)CC1` [Example 69, (R)—N-(1-(4-(1H-tetrazol-5-yl)phenyl)cyclopropyl)-3-methyl-2-((4-(trifluoromethyl)benzyl)oxy)butanamide] reads 0.955 nM; that for `CC(C)[C@H](OCc1ccc(F)cc1)C(=O)N[C@@H](C)c1ccc(C(=O)O)cc1` [Example 4, 4-((S)-1-((S)-2-((4-fluorobenzyl)oxy)-3-methylbutanamido)ethyl)benzoic acid], above 195 nM; that for `CC(C)[C@@H](OCc1cccc(C(F)(F)F)c1)C(=O)N[C@@H](C)c1ccc(C(=O)O)cc1` [Example 15, 4-((S)-1-((R)-3-methyl-2-((3-(trifluoromethyl)benzyl)oxy)butanamido)ethyl)benzoic acid], 0.288 nM. Take `CC(C)[C@@H](OCc1ccc(C(F)(F)F)cc1)C(=O)NCc1ccc(C(=O)O)cc1` [Example 59, (R)-4-((3-methyl-2-((4-(trifluoromethyl)benzyl)oxy)butanamido)methyl)benzoic acid]: the Ki was 9.77 nM. For the molecule `CC(C)[C@@H](OCc1cccc(OC(F)F)c1)C(=O)NC1(c2ccc(-c3nnn[nH]3)cc2)CC1` [Example 72, (R)—N-(1-(4-(1H-tetrazol-5-yl)phenyl)cyclopropyl)-2-((3-(difluoromethoxy)benzyl)oxy)-3-methylbutanamide], the Ki was 0.589 nM. Turning to `CC(C)[C@@H](OCc1ccc(F)c(F)c1)C(=O)NC1(c2ccc(-c3nnn[nH]3)cc2)CC1` [Example 71, (R)—N-(1-(4-(1H-tetrazol-5-yl)phenyl)cyclopropyl)-2-((3,4-difluorobenzyl)oxy)-3-methylbutanamide], the Ki was 0.372 nM. The result for `CC(C)[C@@H](OCc1ccc(F)cc1)C(=O)N[C@@H](C)c1ccc(C(=O)O)cc1` [Example 5, 4-((S)-1-((R)-2-((4-fluorobenzyl)oxy)-3-methylbutanamido)ethyl)benzoic acid] reads 4.17 nM.

As to `CC(C)[C@@H](OCc1ccc(C(F)(F)F)cc1)C(=O)N[C@@H](C)c1ccc(-c2nnn[nH]2)cc1` [Example 43, (R)—N—((S)-1-(4-(1H-tetrazol-5-yl)phenyl)ethyl)-3-methyl-2-((4-(trifluoromethyl)benzyl)oxy)butanamide], the Ki is 0.501 nM.

`CC(C)C(OCc1ccc(C2COC2)cc1)C(=O)N[C@@H](C)c1ccc(C(=O)O)cc1` (mixture of isomers) [Example 47, 4-((1S)-1-(3-methyl-2-((4-(oxetan-3-yl)benzyl)oxy)butanamido)ethyl)benzoic acid]: the Ki was 64.6 nM. Turning to `CC(C)[C@H](OCc1cccc(S(C)(=O)=O)c1)C(=O)N[C@@H](C)c1ccc(C(=O)O)cc1` [Example 7, 4-((S)-1-((S)-3-methyl-2-((3-(methylsulfonyl)benzyl)oxy)butanamido)ethyl)benzoic acid], the Ki was above 195 nM. The result for `CC(C)[C@@H](OCc1ccc(OC(F)F)cc1)C(=O)N[C@@H](C)c1ccc(C(=O)O)cc1` [Example 23, 4-((S)-1-((R)-2-((4-(difluoromethoxy)benzyl)oxy)-3-methylbutanamido)ethyl)benzoic acid] reads 14.5 nM. Under `O=C(O)c1ccc(C2(NC(=O)C(OCc3cccc(OC(F)F)c3)C3CCC3)CC2)cc1` (stereo not drawn) [Example 99, 4-(1-(2-cyclobutyl-2-((3-(difluoromethoxy)benzyl)oxy)acetamido)cyclopropyl)benzoic acid] stands 3.31 nM; under `CC(C)[C@@H](OCc1ccc(F)c(OC(F)F)c1)C(=O)N[C@@H](C)c1ccc(C(=O)O)cc1` [Example 32, 4-((S)-1-((R)-2-((3-(difluoromethoxy)-4-fluorobenzyl)oxy)-3-methylbutanamido)ethyl)benzoic acid], 0.224 nM; under `CC(C)[C@@H](OCc1cccc(OC(F)F)c1)C(=O)N[C@@H](C)c1ccc(C(=O)O)cc1` [Example 24, 4-((S)-1-((R)-2-((3-(difluoromethoxy)benzyl)oxy)-3-methylbutanamido)ethyl)benzoic acid], 0.302 nM. For `CC(C)[C@@H](OCc1cccc(OC(F)(F)F)c1)C(=O)NC1(c2ccc(C(=O)O)cc2)CC1` [Example 58, (R)-4-(1-(3-methyl-2-((3-(trifluoromethoxy)benzyl)oxy)butanamido)cyclopropyl)benzoic acid], the Ki was above 12900 nM. Under `C[C@H](NC(=O)C(OCc1ccc(C(F)(F)F)cc1)C1CCC1)c1ccc(C(=O)O)cc1` (single isomer, unassigned) [Example 94] stands 5.01 nM; under `O=C(O)c1ccc(C2(NC(=O)C(OCc3cccc(Cl)c3)C3CCC3)CC2)cc1` (stereo not drawn) [Example 98, 4-(1-(2-((3-chlorobenzyl)oxy)-2-cyclobutylacetamido)cyclopropyl)benzoic acid], 1.48 nM. Under `CC(C)[C@@H](OCc1ccc(F)c(C2CC2)c1)C(=O)NC1(c2ccc(C(=O)O)cc2)CC1` [Example 89, (R)-4-(1-(2-((3-cyclopropyl-4-fluorobenzyl)oxy)-3-methylbutanamido)cyclopropyl)benzoic acid] stands 6.76 nM. As to `CC(C)C(OCc1cccc(C2COC2)c1)C(=O)NC1(c2ccc(C(=O)O)cc2)CC1` (single isomer, unassigned) [Example 87, 4-(1-(3-methyl-2-((3-(oxetan-3-yl)benzyl)oxy)butanamido)cyclopropyl)benzoic acid], the Ki was above 603 nM. The result for `CC(C)[C@@H](OCc1ccc(F)c(S(C)(=O)=O)c1)C(=O)N[C@@H](C)c1ccc(C(=O)O)cc1` [Example 35, 4-((S)-1-((R)-2-((4-fluoro-3-(methylsulfonyl)benzyl)oxy)-3-methylbutanamido)ethyl)benzoic acid] reads 7.41 nM. Under `O=C(O)c1ccc(C2(NC(=O)[C@H](OCc3cccc(OC(F)F)c3)C3CCC3)CC2)cc1` [Example 101, (R)-4-(1-(2-cyclobutyl-2-((3-(difluoromethoxy)benzyl)oxy)acetamido)cyclopropyl)benzoic acid] stands 0.851 nM.

Consider `CC(C)[C@@H](OCc1ccc(C(F)F)c(F)c1)C(=O)NC1(c2ccc(C(=O)O)cc2)CC1` [Example 61, (R)-4-(1-(2-((4-(difluoromethyl)-3-fluorobenzyl)oxy)-3-methylbutanamido)cyclopropyl)benzoic acid], for which the Ki is 0.339 nM.

Regarding `CC(C)[C@@H](OCc1ccc2c(c1)OC(F)(F)O2)C(=O)N[C@@H](C)c1ccc(C(=O)O)cc1` [Example 28, 4-((S)-1-((R)-2-((2,2-difluorobenzo[d][1,3]dioxol-5-yl)methoxy)-3-methylbutanamido)ethyl)benzoic acid], the Ki is 0.151 nM. Take `CC(C)[C@@H](OCc1ccc(C(F)F)cc1)C(=O)N[C@@H](C)c1ccc(C(=O)O)cc1` [Example 13, 4-((S)-1-((R)-2-((4-(difluoromethyl)benzyl)oxy)-3-methylbutanamido)ethyl)benzoic acid]: the Ki is 2.34 nM.
